Values quoted from earlier work, collected in PMC9906001 (Pulmonary Circulation, 2023).

System: Japanese patients with pulmonary arterial hypertension
Conditions: baseline to week 16, study of selexipag in Japan; cited from earlier work

CC(C)N(CCCCOCC(=O)NS(C)(=O)=O)c1cnc(-c2ccccc2)c(-c2ccccc2)n1 [selexipag]
Change from baseline in mPAP: −3.1 mmHg
